Legend:
[1] = target: D(2) dopamine receptor (Homo sapiens, UniProt P14416); assay: Displacement of [125I]spiperone from human recombinant dopamine D2 receptor
[2] = target: T1, Alpha-1A adrenergic receptor (Homo sapiens, UniProt P35348); assay: Displacement of [125I]HEAT from human recombinant adrenergic alpha1A receptor
T1 sequence (P35348 whole entry): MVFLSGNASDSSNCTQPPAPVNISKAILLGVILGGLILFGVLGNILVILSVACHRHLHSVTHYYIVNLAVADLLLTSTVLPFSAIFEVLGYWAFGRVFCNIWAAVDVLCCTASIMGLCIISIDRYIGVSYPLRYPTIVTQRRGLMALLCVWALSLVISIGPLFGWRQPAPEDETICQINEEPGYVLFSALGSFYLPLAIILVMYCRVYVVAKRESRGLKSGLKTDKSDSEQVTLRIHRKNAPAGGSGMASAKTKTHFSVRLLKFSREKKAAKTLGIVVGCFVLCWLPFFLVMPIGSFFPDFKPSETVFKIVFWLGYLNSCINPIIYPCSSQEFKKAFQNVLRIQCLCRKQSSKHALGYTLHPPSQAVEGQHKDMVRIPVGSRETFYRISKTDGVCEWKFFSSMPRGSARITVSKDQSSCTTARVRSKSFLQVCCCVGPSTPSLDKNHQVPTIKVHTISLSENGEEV

[3] = target: T2, Alpha-1B adrenergic receptor (Homo sapiens, UniProt P35368); assay: Displacement of [125I]HEAT from human recombinant adrenergic Alpha-1B receptor
T2 sequence (P35368 whole entry): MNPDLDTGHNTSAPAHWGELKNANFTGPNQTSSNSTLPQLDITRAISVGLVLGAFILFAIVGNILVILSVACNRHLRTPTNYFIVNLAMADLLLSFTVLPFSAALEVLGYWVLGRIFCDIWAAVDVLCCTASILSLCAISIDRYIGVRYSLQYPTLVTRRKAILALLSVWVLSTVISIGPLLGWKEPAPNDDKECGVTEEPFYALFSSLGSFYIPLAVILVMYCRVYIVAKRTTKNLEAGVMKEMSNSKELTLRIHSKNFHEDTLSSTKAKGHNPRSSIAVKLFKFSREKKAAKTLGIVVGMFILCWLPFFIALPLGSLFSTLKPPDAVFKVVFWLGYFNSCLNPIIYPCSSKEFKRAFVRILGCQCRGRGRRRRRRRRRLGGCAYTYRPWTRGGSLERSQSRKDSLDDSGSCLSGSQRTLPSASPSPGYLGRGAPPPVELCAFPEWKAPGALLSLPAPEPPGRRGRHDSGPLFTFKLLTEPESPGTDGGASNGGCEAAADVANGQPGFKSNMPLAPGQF

[4] = organism: Homo sapiens; assay: Selectivity for human alpha1A receptor over human Alpha-1D receptor

Sequence of D(2) dopamine receptor (P14416 whole entry): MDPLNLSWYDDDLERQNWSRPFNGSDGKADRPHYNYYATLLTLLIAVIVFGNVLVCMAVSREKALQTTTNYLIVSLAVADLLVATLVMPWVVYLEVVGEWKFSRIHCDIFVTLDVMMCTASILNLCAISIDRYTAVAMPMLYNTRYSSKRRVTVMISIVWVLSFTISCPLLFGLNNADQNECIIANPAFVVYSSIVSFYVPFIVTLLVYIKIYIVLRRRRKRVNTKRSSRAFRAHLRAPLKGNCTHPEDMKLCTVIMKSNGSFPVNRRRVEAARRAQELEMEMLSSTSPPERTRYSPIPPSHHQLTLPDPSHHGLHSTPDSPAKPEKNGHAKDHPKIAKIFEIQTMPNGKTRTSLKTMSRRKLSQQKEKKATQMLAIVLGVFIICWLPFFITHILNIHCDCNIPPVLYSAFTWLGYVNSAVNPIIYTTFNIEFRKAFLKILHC

Structure (SMILES) | Ki [1] [nM] | Ki [2] [nM] | Ki [3] [nM] | Ratio Ki [4]
COc1ccccc1NC(=O)NC1CCC(N2CCN(c3ccccc3OC(C)C)CC2)CC1 (stereo in doubt; trans) | 921 | 38 | 107 | 
COc1ccc(Cl)cc1NC(=O)NC1CCC(N2CCN(c3ccccc3OC(C)C)CC2)CC1 (trans isomer) | 1.2 | 34 |  | 
CC(C)Oc1ccccc1N1CCN(C2CCC(NC(=O)Nc3c(Cl)cccc3Cl)CC2)CC1 (stereo in doubt; trans) | 4.7 | 6.2 |  | 
CC(C)Oc1ccccc1N1CCN(C2CCC(NC(=O)Nc3c(Cl)cc(Cl)cc3Cl)CC2)CC1 (stereo in doubt) | 103 | 51 | 483 | 
COc1ccc(NC(=O)NC2CCC(N3CCN(c4ccccc4OC(C)C)CC3)CC2)c(OC)c1 (stereo in doubt; trans) | 892 | 74 |  | 
CC(C)Oc1ccccc1N1CCN(C2CCC(NC(=O)Nc3ccccc3Cl)CC2)CC1 (stereo in doubt) [listing 1 of 2 here] |  |  |  | 4
CC(C)Oc1ccccc1N1CCN(C2CCC(NC(=O)Nc3c(Cl)cccc3Cl)CC2)CC1 (stereo in doubt; cis) | 55 | 33 |  | 
CC(C)Oc1ccccc1N1CCN(C2CCC(NC(=O)Nc3ccccc3Cl)CC2)CC1 (stereo in doubt) [listing 2 of 2 here] | 33 | 11 | 39 | 
COc1ccccc1NC(=O)NC1CCC(N2CCN(c3ccccc3OC(C)C)CC2)CC1 (stereo in doubt; cis) | 390 | 155 | 223 | 
CC(C)Oc1ccccc1N1CCN(C2CCC(NC(=O)Nc3c(Cl)cc(Cl)cc3Cl)CC2)CC1 (trans isomer) [listing 1 of 2 here] | 6.5 | 6.5 | 112 | 
COc1ccc(NC(=O)NC2CCC(N3CCN(c4ccccc4OC(C)C)CC3)CC2)c(OC)c1 (stereo in doubt; cis) | 288 | 110 |  | 
CC(C)Oc1ccccc1N1CCN(C2CCC(NC(=O)Nc3ccc(F)c(F)c3)CC2)CC1 (cis isomer) | 127 | 51 | 963 | 
COc1ccc(Cl)cc1NC(=O)NC1CCC(N2CCN(c3ccccc3OC(C)C)CC2)CC1 (cis isomer) | 99 | 101 |  | 
CC(C)Oc1ccccc1N1CCN(C2CCC(NC(=O)Nc3ccccc3Cl)CC2)CC1 (cis isomer) | 878 | 48 | 373 | 
CC(C)Oc1ccccc1N1CCN(C2CCC(NC(=O)Nc3c(Cl)cc(Cl)cc3Cl)CC2)CC1 (trans isomer) [listing 2 of 2 here] |  |  |  | 4

The next lines start with the values.

Ki [1] [nM] | Ki [2] [nM] | Ki [3] [nM] | Ratio Ki [4] | Structure (SMILES)
120 | 11 | 69 |  | CC(C)Oc1ccccc1N1CCN(C2CCC(NC(=O)NCc3cccc(F)c3)CC2)CC1 (stereo in doubt; trans) [listing 1 of 2 here]
 |  |  | 4 | CC(C)Oc1ccccc1N1CCN(C2CCC(NC(=O)Nc3cc(F)ccc3F)CC2)CC1 (stereo in doubt) [listing 1 of 2 here]
0.69 | 3.1 | 76 |  | CC(C)Oc1ccccc1N1CCN(C2CCC(NC(=O)Nc3ccc(F)cc3F)CC2)CC1 (trans isomer)
 |  |  | 4 | CC(C)Oc1ccccc1N1CCN(C2CCC(NC(=O)NCc3cccc(F)c3)CC2)CC1 (stereo in doubt; trans) [listing 2 of 2 here]
22 | 52 | 299 |  | CC(C)Oc1ccccc1N1CCN(C2CCC(NC(=O)Nc3c(F)cccc3F)CC2)CC1 (stereo in doubt; cis)
2.4 | 5.3 | 36 |  | CC(C)Oc1ccccc1N1CCN(C2CCC(NC(=O)Nc3c(F)cccc3F)CC2)CC1 (stereo in doubt; trans)
35.5 | 14 | 475 |  | CC(C)Oc1ccccc1N1CCN(C2CCC(NC(=O)Nc3ccc(F)cc3F)CC2)CC1 (cis isomer)
199 | 26 | 259 |  | CC(C)Oc1ccccc1N1CCN(C2CCC(NC(=O)Nc3cc(F)ccc3F)CC2)CC1 (cis isomer)
84 | 5.1 |  |  | CC(C)Oc1ccccc1N1CCN(C2CCC(NC(=O)Nc3cccc(Cl)c3)CC2)CC1 (stereo in doubt; trans)
108 | 22 |  |  | CC(C)Oc1ccccc1N1CCN(C2CCC(NC(=O)Nc3cccc(Cl)c3)CC2)CC1 (stereo in doubt; cis)
0.46 | 1.7 | 36.4 |  | CC(C)Oc1ccccc1N1CCN(C2CCC(NC(=O)Nc3cc(F)ccc3F)CC2)CC1 (stereo in doubt) [listing 2 of 2 here]
183 | 82 | 706 |  | CC(C)Oc1ccccc1N1CCN(C2CCC(NC(=O)NCc3cccc(F)c3)CC2)CC1 (stereo in doubt; cis)
54 | 3.6 | 60 |  | CC(C)Oc1ccccc1N1CCN(C2CCC(NC(=O)Nc3ccc(F)c(F)c3)CC2)CC1 (stereo in doubt)

From ChEMBL document CHEMBL1143857, “(Phenylpiperazinyl)cyclohexylureas: discovery of alpha1a/1d-selective adrenergic receptor antagonists for the treatment of benign prostatic hyperplasia/lower urinary tract symptoms (BPH/LUTS)” (Bioorg Med Chem Lett, 2008)
